Holding throughout (format): cell-based, human
The subject of data set [1] is DU-145 cells. The experiment in a line: Comet assay, DU-145. The conditions noted are these: DU-145, 0.5 μM, 24 h. As to the method:
(§1) The comet assay was performed to evaluate DNA damage following the method described by ([37]). Briefly, DU-145 and PNT-2 cells were seeded (1.0 × 10^5 cells/well) in 24-well plates and maintained to attach at 37°C in 5% CO2 for 24 h. After, cells were treated with different concentrations of complex (2) for 24 h. DMSO (0.1% v/v) was used as the vehicle control and methyl methanesulfonate (150 μM, Sigma-Aldrich) as DNA damage inducer. Following 24 h of incubation, the cells were collected, and cell viability assay was performed using trypan blue dye. […] Then, cells were mixed with UltraPure™ Low-Melting-Point Agarose (0.5%, Invitrogen®), and added on pre-coated slides with UltraPure™ Agarose (1.5%, Invitrogen®). After agarose solidification, the slides were immersed in a lysis solution (2.5 M NaCl, 100 mM EDTA, 10 mM Tris, 10% DMSO, 1% Triton X-100, pH 10.4) for 18 h at 4°C. […] The nucleoids were identified in a fluorescence microscope (AxioStar Plus, Carl Zeiss Axio Cam MRc-AxioVision 3.1) using a 516 to 560 nm filter, 590 nm filter barrier, in 20× objective with an integrated digital camera. For each treatment, 100 random nucleoids were analyzed, and the tail fluorescence was measured through the Comet Assay IV™ imaging system (Perceptive Instruments^©, Bury St Edmunds, England).

Another data set has as its system PNT-2 cells. Briefly: Comet assay, PNT-2. As to the method: as §1
Another data set deals with Aurora-B. Briefly: Western blot, Aurora-B expression. The following applies: DU-145, increasing concentrations (0.25-1.5 μM), 24 h. As to the method:
Briefly, DU-145 cells were seeded (1.0 × 10^6 cells/well) into six-well plates and maintained to attach at 37°C in 5% CO2. After 24 h, cells were treated with 0.25, 0.50, 1.0, and 1.5 μM of complex (2). DMSO (0.1% v/v) was used as the vehicle control. After 24 h of incubation, cells were collected and suspended in Western blotting lysis buffer (20 mM Tris-HCl pH 7.4, 150 mM NaCl, 1 mM EDTA, and phosphatase and protease inhibitors). Cell lysates were centrifuged at 11,000g for 15 min at 4 °C, and supernatant was collected. Protein concentrations were quantified using the BCA Protein Assay Kit® (Thermo Fischer Scientific), according to the manufacturer’s instructions. For immunoblotting, equal amounts (30 μg) of total protein were electrophoresed in a NuPAGE® 4-12% Bis-Tris gel and transferred to an Invitrolon™ polyvinylidene difluoride (PVDF) membrane (Novex®, Thermo Fischer Scientific) at 100 V for 1 h. PVDF-membrane was washed two times (5 min each) with Tris-buffered saline plus Tween 20 (TBST, Sigma-Aldrich) and blocked in 5% non-fat milk in phosphate buffered saline with Tween®20 (PBST, Sigma-Aldrich) for 1 h at room temperature. […]
(In western blotting, separated proteins are transferred to a membrane and probed.)

Data set [2] has as its system DU-145 cells. Briefly: Cellular ROS/Superoxide detection. As to the method:
Total intracellular ROS generation was measured using 2′,7′-dichlorodihydrofluorescein diacetate (H2DCFDA, Sigma-Aldrich), as reported by ([36]). Briefly, DU-145 cells were seeded (1.5 × 10^4 cells/well) into black 96-well plates and maintained to attach at 37°C in 5% CO2. […] After that, cells were labeled with H2DCFDA solution at 5 μM in N,N-dimethylformamide (Sigma-Aldrich). After that, fluorescence intensity was measured in a Synergy H1 Fluorescence Spectrophotometer (BioTek®), at the excitation and emission wavelengths of 495 and 527 nm, respectively. Thereafter, ROS/Superoxide levels were measured using Cellular ROS/Superoxide Detection Assay Kit (Abcam®). Cells were seeded (1.5 × 10^4 cells/well) into black 96-well plates and maintained to attach at 37°C in 5% CO2. After 24 h, cells were treated with complex (2) (0.25, 0.50, 1.0, and 1.5 μM) for 24 h. […] Fluorescence was measured in quadruplicates using a fluorescent microplate reader Synergy H1 (BioTek®) with standard fluorescein (Ex = 488 nm, Em = 520 nm) and rhodamine (Ex = 550 nm, Em = 610 nm) filter sets for ROS and superoxide determination, respectively. […] Cells were labeled as described above, and the ROS levels were measured. […] After 24 h of treatment, the cell viability was determined by Alamar blue® assay as described above.

The values below come from publication PMC8264259, “A Novel Ruthenium(II) Complex With Lapachol Induces G2/M Phase Arrest Through Aurora-B Kinase Down-Regulation and ROS-Mediated Apoptosis in Human Prostate Adenocarcinoma Cells” (Frontiers in Oncology, 2021).

With `CC(C)=CCC1=C([O-])C(=O)c2ccccc2C1=O.F[P-](F)(F)(F)(F)F.[Ru+2].c1ccc(P(CP(c2ccccc2)c2ccccc2)c2ccccc2)cc1.c1cnc2c(c1)ccc1cccnc12` [complex (2), [Ru(Lap)(dppm)(phen)]PF6], the “DNA damage (comet tail intensity)” value was “significant DNA damage increase” with DU-145 cells [1]; “increase in DNA damage” with PNT-2 cells (PNT-2, maximum tested concentration 6.0 μM (~IC50), 24 h); “no DNA damage” in the data set with PNT-2 cells (PNT-2 prostate normal cells, same concentrations as DU-145, 24 h). Moreover, the Aurora-B protein levels result in the data set with Aurora-B is listed as “downregulated”. The “total ROS levels” value in the data set on DU-145 cells [2] (DU-145, 24 h exposure) was “significantly higher”. In addition, in the data set on DU-145 cells [2] (DU-145, cotreatment with 5 mM NAC, 24 h), the “intracellular ROS with ROS scavenger NAC” value is “inhibited the formation of intracellular ROS”.
